The numbers were not newly measured in article PMC11659887 (ACS Bio & Med Chem Au, 2024), which cites them from elsewhere.

The data set deals with SARS-CoV-2 M^pro E166Q.

Consider `CC(C)(C)[C@H](NC(=O)C(F)(F)F)C(=O)N1C[C@H]2[C@@H]([C@H]1C(=O)N[C@H](C#N)C[C@@H]1CCNC1=O)C2(C)C` [nirmatrelvir, Nirmatrelvir], for which the resistance to nirmatrelvir result is on record as “no significant resistance”.
